Measured values published in ChEMBL document CHEMBL1158551, “Click reaction synthesis of carbohydrate derivatives from ristocetin aglycon with antibacterial and antiviral activity” (Bioorg Med Chem Lett, 2010).
Converted amounts (≈) assume the structure as drawn. The source made the active and inactive calls. No cut-off for these calls is given here.

Assays:
[1] = system: Enterococcus faecalis; assay: Antibacterial activity against vancomycin and teicoplanin-sensitive Enterococcus faecalis ATCC 29212 by broth microdilution method; type: functional
[2] = system: Enterococcus faecalis; assay: Antibacterial activity against vancomycin and teicoplanin-resistant Enterococcus faecalis 15376 expressing VanA gene by broth microdilution method; type: functional
[3] = system: Influenza A virus; assay: Antiviral activity against Influenza A virus H3N2 assessed as cell viability by cell based MTS assay; type: functional, organism-based
[4] = system: Bacillus subtilis; assay: Antibacterial activity against Bacillus subtilis ATCC 6633 by broth microdilution method; type: functional
[5] = system: Influenza B virus; assay: Antiviral activity against influenza B virus assessed as cell viability by cell based MTS assay; type: functional, organism-based
[6] = system: Influenza A virus; assay: Antiviral activity against Influenza A virus H3N2 assessed as inhibition of viral induced cytopathic effect; type: functional, organism-based
[7] = system: Staphylococcus epidermidis; assay: Antibacterial activity against biofilm positive Staphylococcus epidermidis ATCC 35984; type: functional
[8] = system: Platelet; assay: Inhibition of ristocetin-induced platelet aggregation at 0.1 mg/ml; type: functional, cell-based
[9] = system: Influenza A virus; assay: Antiviral activity against influenza A virus H1N1 assessed as cell viability by cell based MTS assay; type: functional, organism-based
[10] = system: Staphylococcus epidermidis; assay: Antibacterial activity against Staphylococcus epidermidis by broth microdilution method; type: functional
[11] = system: Staphylococcus aureus; assay: Antibacterial activity against methicillin-[…] Staphylococcus aureus ATCC 29213 by broth microdilution method; type: functional
[12] = system: Staphylococcus aureus; assay: Antibacterial activity against methicillin-[…] Staphylococcus aureus ATCC 33591 by broth microdilution method; type: functional
[13] = system: Influenza A virus; assay: Antiviral activity against influenza A virus H1N1 assessed as inhibition of viral induced cytopathic effect; type: functional, organism-based
[14] = system: Enterococcus faecalis; assay: Antibacterial activity against vancomycin-resistant and teicoplanin-sensitive Enterococcus faecalis ATCC 5129 expressing VanB gene by broth microdilution method; type: functional
[15] = system: Influenza B virus; assay: Antiviral activity against influenza B virus assessed as inhibition of viral induced cytopathic effect; type: functional, organism-based
[16] = Toxicity assessed as increase of ristocetin-induced platelet aggregation; type: cell-based

SMILES	MBC [1] [mg/L]	MIC [1] [mg/L]	MBC [2] [mg/L]	MIC [2] [mg/L]	EC50 [3] [µM]	MBC [4] [mg/L]	MIC [4] [mg/L]	EC50 [5] [µM]	EC50 [6] [µM]	MBC [7] [mg/L]	MIC [7] [mg/L]	EC50 [9] [µM]	MBC [10] [mg/L]	MIC [10] [mg/L]	MIC [11] [mg/L]	MBC [12] [mg/L]	MIC [12] [mg/L]	EC50 [13] [µM]	MBC [14] [mg/L]	EC50 [15] [µM]	further results
COC(=O)[C@@H]1NC(=O)[C@H]2NC(=O)[C@H](NC(=O)[C@@H]3NC(=O)[C@H]4NC(=O)[C@H](NC(=O)[C@H](n5cc(CO[C@H]6O[C@H](CO)[C@@H](O)[C@H](O)[C@H]6NC(C)=O)nn5)c5ccc(O)c(c5)Oc5cc4cc(O)c5C)[C@H](O)c4ccc(cc4)Oc4cc3cc(c4O)Oc3ccc(cc3)[C@H]2O)c2ccc(O)c(c2)-c2c(O)cc(O)cc21	256 (≈ 175 µM)	8 (≈ 5.48 µM)	256 (≈ 175 µM)	8 (≈ 5.48 µM)	≥ 72	8 (≈ 5.48 µM)	4 (≈ 2.74 µM)	40	≥ 45	2 (≈ 1.37 µM)	2 (≈ 1.37 µM)	8.7	4 (≈ 2.74 µM)	2 (≈ 1.37 µM)	2 (≈ 1.37 µM)	4 (≈ 2.74 µM)	4 (≈ 2.74 µM)	9	256 (≈ 175 µM)	32	inhibition [8]: inactive; MBC [11]: 2 mg/L (≈ 1.37 µM); MIC [14]: 16 mg/L (≈ 11 µM)
COC(=O)[C@@H]1NC(=O)[C@H]2NC(=O)[C@H](NC(=O)[C@@H]3NC(=O)[C@H]4NC(=O)[C@H](NC(=O)[C@H](n5cc(CO[C@H]6O[C@H](CO)[C@@H](O[C@H]7O[C@H](CO)[C@@H](O)[C@H](O)[C@H]7O)[C@H](O)[C@H]6O)nn5)c5ccc(O)c(c5)Oc5cc4cc(O)c5C)[C@H](O)c4ccc(cc4)Oc4cc3cc(c4O)Oc3ccc(cc3)[C@H]2O)c2ccc(O)c(c2)-c2c(O)cc(O)cc21	256 (≈ 162 µM)	4 (≈ 2.53 µM)	256 (≈ 162 µM)	8 (≈ 5.06 µM)	> 100	4 (≈ 2.53 µM)	4 (≈ 2.53 µM)	61	> 100	8 (≈ 5.06 µM)	4 (≈ 2.53 µM)	20	2 (≈ 1.27 µM)	1 (≈ 0.633 µM)	4 (≈ 2.53 µM)	256 (≈ 162 µM)	2 (≈ 1.27 µM)	16	256 (≈ 162 µM)	52	inhibition [8]: Active; MBC [11]: 256 mg/L (≈ 162 µM); MIC [14]: 32 mg/L (≈ 20.2 µM)
COC(=O)[C@@H]1NC(=O)[C@H]2NC(=O)[C@H](NC(=O)[C@@H]3NC(=O)[C@H]4NC(=O)[C@H](NC(=O)[C@H](n5cc(CO[C@H]6O[C@H](CO)[C@@H](O)[C@H](O)[C@H]6O)nn5)c5ccc(O)c(c5)Oc5cc4cc(O)c5C)[C@H](O)c4ccc(cc4)Oc4cc3cc(c4O)Oc3ccc(cc3)[C@H]2O)c2ccc(O)c(c2)-c2c(O)cc(O)cc21	256 (≈ 180 µM)	4 (≈ 2.82 µM)	256 (≈ 180 µM)	4 (≈ 2.82 µM)	≥ 30	8 (≈ 5.64 µM)	2 (≈ 1.41 µM)	33	≥ 45	4 (≈ 2.82 µM)	2 (≈ 1.41 µM)	16	4 (≈ 2.82 µM)	4 (≈ 2.82 µM)	2 (≈ 1.41 µM)	128 (≈ 90.2 µM)	2 (≈ 1.41 µM)	14	256 (≈ 180 µM)	32	inhibition [8]: Active; MBC [11]: 256 mg/L (≈ 180 µM); MIC [14]: 8 mg/L (≈ 5.64 µM)
COC(=O)[C@H]1NC(=O)[C@H]2NC(=O)[C@H](NC(=O)[C@@H]3NC(=O)[C@H]4NC(=O)[C@H](NC(=O)[C@H](n5cc(CO[C@@H]6O[C@@H](C)[C@H](O)[C@@H](O)[C@H]6O)nn5)c5ccc(O)c(c5)Oc5cc4cc(O)c5C)[C@H](O)c4ccc(cc4)Oc4cc3cc(c4O)Oc3ccc(cc3)[C@H]2O)c2ccc(O)c(c2)-c2c(O)cc(O)cc21	–	–	–	–	> 100	–	–	> 100	> 100	–	–	> 100	–	–	–	–	–	> 100	–	> 100	Activity [16]: Toxic
COC(=O)[C@@H]1NC(=O)[C@H]2NC(=O)[C@H](NC(=O)[C@@H]3NC(=O)[C@H]4NC(=O)[C@H](NC(=O)[C@H](n5cc(CO[C@@H]6O[C@@H](C)[C@H](OC(C)=O)[C@@H](OC(C)=O)[C@H]6OC(C)=O)nn5)c5ccc(O)c(c5)Oc5cc4cc(O)c5C)[C@H](O)c4ccc(cc4)Oc4cc3cc(c4O)Oc3ccc(cc3)[C@H]2O)c2ccc(O)c(c2)-c2c(O)cc(O)cc21	256 (≈ 167 µM)	32 (≈ 20.9 µM)	256 (≈ 167 µM)	16 (≈ 10.5 µM)	> 100	32 (≈ 20.9 µM)	32 (≈ 20.9 µM)	> 100	> 100	4 (≈ 2.62 µM)	4 (≈ 2.62 µM)	> 100	8 (≈ 5.23 µM)	4 (≈ 2.62 µM)	16 (≈ 10.5 µM)	32 (≈ 20.9 µM)	16 (≈ 10.5 µM)	> 100	256 (≈ 167 µM)	> 100	MBC [11]: 32 mg/L (≈ 20.9 µM); MIC [14]: 128 mg/L (≈ 83.7 µM)
COC(=O)[C@@H]1NC(=O)[C@H]2NC(=O)[C@H](NC(=O)[C@@H]3NC(=O)[C@H]4NC(=O)[C@H](NC(=O)[C@H](n5cc(CO[C@H]6O[C@H](COC(C)=O)[C@@H](O[C@H]7O[C@H](COC(C)=O)[C@@H](OC(C)=O)[C@H](OC(C)=O)[C@H]7OC(C)=O)[C@H](OC(C)=O)[C@H]6OC(C)=O)nn5)c5ccc(O)c(c5)Oc5cc4cc(O)c5C)[C@H](O)c4ccc(cc4)Oc4cc3cc(c4O)Oc3ccc(cc3)[C@H]2O)c2ccc(O)c(c2)-c2c(O)cc(O)cc21	256 (≈ 137 µM)	4 (≈ 2.13 µM)	256 (≈ 137 µM)	2 (≈ 1.07 µM)	> 100	8 (≈ 4.27 µM)	8 (≈ 4.27 µM)	> 100	> 100	8 (≈ 4.27 µM)	4 (≈ 2.13 µM)	> 100	16 (≈ 8.53 µM)	4 (≈ 2.13 µM)	1 (≈ 0.533 µM)	4 (≈ 2.13 µM)	1 (≈ 0.533 µM)	> 100	256 (≈ 137 µM)	> 100	MBC [11]: 4 mg/L (≈ 2.13 µM); MIC [14]: 8 mg/L (≈ 4.27 µM)
COC(=O)[C@@H]1NC(=O)[C@H]2NC(=O)[C@H](NC(=O)[C@@H]3NC(=O)[C@H]4NC(=O)[C@H](NC(=O)[C@H](n5cc(CO[C@H]6O[C@H](CO)[C@@H](O)[C@H](O)[C@@H]6O)nn5)c5ccc(O)c(c5)Oc5cc4cc(O)c5C)[C@H](O)c4ccc(cc4)Oc4cc3cc(c4O)Oc3ccc(cc3)[C@H]2O)c2ccc(O)c(c2)-c2c(O)cc(O)cc21	256 (≈ 180 µM)	8 (≈ 5.64 µM)	64 (≈ 45.1 µM)	16 (≈ 11.3 µM)	≥ 46	4 (≈ 2.82 µM)	4 (≈ 2.82 µM)	≥ 50	≥ 45	8 (≈ 5.64 µM)	4 (≈ 2.82 µM)	22	8 (≈ 5.64 µM)	4 (≈ 2.82 µM)	2 (≈ 1.41 µM)	16 (≈ 11.3 µM)	4 (≈ 2.82 µM)	10	256 (≈ 180 µM)	≥ 45	inhibition [8]: inactive; MIC [14]: 16 mg/L (≈ 11.3 µM)
